The values that follow come from US4461901A, “Pyridyl containing 1,2-benzisothiazole-3-amine derivatives” (American Home Products Corporation, priority 1983, dated 1984).

For series [1] the following is noted: cited from earlier work.
Series [2] has as its target T1, histamine H2 receptor (Cavia porcellus, UniProt P47747).
T1 construct: from tissue; host or cells: guinea pig right atrium (isolated, spontaneously beating)
As to the kind of experiment: guinea pig heart atrium test: inhibition of histamine-induced positive chronotropic response in the spontaneously beating right atrium. The note with it: read-out: pA2 Value (apparent dissociation constant of the H2 antagonist) (converted). The protocol:
The guinea pig heart atrium test is carried out as follows.
A guinea pig right atrium is suspended at 1 g tension (isometric) in the thermostatically controlled (32° C.) tissue bath (10 ml) containing oxygenated (95% O2; 5% CO2) Krebs-Haenseleit buffer (pH 7.4). The tissue is allowed to stabilize over 1 hour. Individual contractions are recorded with a force-displacement transducer through a strain gauge coupler. A control dose-response curve to histamine in the above described tissue bath is obtained after which the tissue is washed 3 times and allowed to re-equilibrate to basal rate. The test compound is added to the tissue bath at the desired final concentration. Thirty minutes after addition of the compound, a fresh histamine dose response curve is again obtained. Then the response to histamine in the presence of antagonist is compared to the histamine control response. This procedure is repeated, using fresh tissues, for each concentration of antagonist tested.

In series [3] the test system is gastric acid secretion. Nature of the series: gastric secretion in the rat, modified Shay procedure of pylorus ligation. The class given is in vivo. Conditions: 32 mg/kg, interduodenally (i.d.), male Charles River rats, four hours after ligation. The protocol:
The procedures for these tests and the results for some of the compounds of the invention are presented at the end of the following examples, which will serve to illustrate the present invention.
The procedure for testing gastric secretion in the rat, a modification of the procedure of Shay et al., Gastroenterology, 26, 906-13 (1954) is carried out as follows.
Male Charles River rats weighing 200-300 grams are deprived of food but not water for 24 hours prior to use. Water is, however, withheld during the experiment. The rats are weighed, anesthetized, and the pylorus ligated according to the method of Shay et al. Treatment or vehicle control is then administered interduodenally (i.d.). Rats are housed 2/cage and sacrificed with CO2 four hours after ligation. The stomachs are removed, rinsed, and contents emptied into a graduated centrifuge tube. The tubes are centrifuged for 20 minutes at 2,000 RPM and the volume of gastric juice recorded. Any samples obviously contaminated by feces, food or hemolysis are eliminated. An aliquot of each is frozen for later analysis of Na^+, K^+ and Cl^- concentration. The pH is measured and 1 ml of gastric juice is titrated with 0.1N NaOH to a pH of 7.0-7.4. Titratable acid output is calculated in microequivalents and the percent inhibition of acid output is calculated as follows: [formula]

The subject of series [4] is H2 histamine receptors. The note with it: background statement; cited from earlier work.

Where a name gives a salt, the structure may show the parent alone.

T1 sequence (P47747 whole entry): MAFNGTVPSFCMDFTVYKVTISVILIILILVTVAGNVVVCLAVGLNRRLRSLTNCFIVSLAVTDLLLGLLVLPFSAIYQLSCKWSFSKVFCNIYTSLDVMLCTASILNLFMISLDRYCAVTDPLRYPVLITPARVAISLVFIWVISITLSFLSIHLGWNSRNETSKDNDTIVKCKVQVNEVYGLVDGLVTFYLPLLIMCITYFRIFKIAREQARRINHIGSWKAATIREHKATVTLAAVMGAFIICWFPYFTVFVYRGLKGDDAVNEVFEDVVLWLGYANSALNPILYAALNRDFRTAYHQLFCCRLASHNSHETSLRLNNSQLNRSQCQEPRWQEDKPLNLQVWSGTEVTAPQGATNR

On to `CN/C(=N/CCSCc1nc[nH]c1C)NC#N` [Cimetidine], for which, in series [1] (elderly patients), the confusional states entry is given as “tendency to cause confusional states in elderly patients”. In series [1] (patients), the anti-androgenic activity result was “anti-androgenic activity” and the duration of action entry is “short duration of action”.

For `Nc1cc(OCCCNC2=NS(=O)(=O)c3ccccc32)ccn1` [Example 3, N-[3-[(2-amino-4-pyridinyl)oxy]propyl]-1,2-benzisothiazol-3-amine 1,1 dioxide, hydrochloride, hemiethanolate], in series [2], the Kb was 10 nM. Moreover, the “% Inhibition (of acid output)” value in series [3] is listed as 57%.

In the case of `CNC(=NC#N)NCCSCc1csc(N=C(N)N)n1` [tiotidine], the “selective H2 antagonist activity versus cimetidine” value in series [4] is listed as “greater activity than cimetidine”.

On to `Nc1ncccc1OCCCNC1=NS(=O)(=O)c2ccccc21` [Example 2, N-[3-[(2-amino-3-pyridinyl)oxy]propyl]-1,2-benzisothiazol-3-amine 1,1-dioxide, hydrochloride, hemihydrate], for which the Kb in series [2] was 10 nM.
